Experimental findings from patent US11339177B2, “Heteroaryl compounds as inhibitors of necrosis, composition and method using the same” (ACCRO BIOSCIENCE INC., priority 2017, dated 2022) are described below.

One assay deals with L929 cells. Nature of the assay: Necroptosis assay in L929 cells (TNF-α, z-VAD; cell viability by ATP levels). The settings on record: Mus musculus, TNF-α (40 ng/mL), z-VAD (20 μM), 48 hours. The assay is classed as cell-based. On the procedure: […] Then the cells were treated with TNF-α (40 ng/mL) and z-VAD (20 μM) for 48 hours, and the viability of cells was quantified by detecting adenosine triphosphate (ATP) levels. DMSO pretreatment group was used as negative controls, Nec-1 pretreatment group was used as positive controls.

The subject of another assay is HT29 cells. Nature of the assay: Necroptosis assay in HT29 cells (TNF-α, Smac mimetic, z-VAD; cell viability). The assay is classed as cell-based. The settings on record: Homo sapiens, HT-29; TNF-α (40 ng/mL), Smacmimetic (100 nM), z-VAD (20 μM), 48 hours. On the procedure:
Human colon cancer HT29 cells were used in a necroptosis assay. For this assay, HT29 cells were added to 96-well plates and then were pre-treated with 10 μM of the test compound for one hour. Then the cells were treated with TNF-α (40 ng/mL), Smacmimetic (100 nM) and z-VAD (20 μM) for 48 hours, and the viability of cells was quantified. DMSO pretreatment group was used as negative controls, Nec-1 pretreatment group was used as positive controls.
In Table 2, (1) “ND” indicates “not detected;” (2) Explanation for inhibition %: Taking Compound B14 as an example, its inhibition % was 30% (50 nM). It means that the when Compound B14 at a concentration of 50 nM was used in the HT29 Cell Assay, the necrosis of cells were inhibited at 30%.

Usually IC50 stands for the point on the concentration scale where inhibition reaches its midpoint. Consider `Nc1nc2ccc(-c3cnc4c(c3)N(C(=O)OC3CCCCC3)CCO4)cc2s1` [Compound B1], for which the figures for the IC50 with L929 cells and with HT29 cells were 3.6 nM and 11 nM, respectively. For `O=C(Nc1nc2ccc(-c3cnc4c(c3)N(C(=O)OC3CCCCC3)CCO4)cc2s1)C1CC1` [Compound B3], the IC50 with L929 cells is 0.59 nM; in the assay on HT29 cells it was 0.5 nM.

With `CC(=O)Nc1nc2ccc(-c3cnc4c(c3)N(C(=O)OC3CCCCC3)CCO4)cn2n1` [Compound B7], the IC50 in the assay on L929 cells is 20 nM; with HT29 cells, 46 nM.

Turning to `CC(=O)Nc1cn2cc(-c3cnc4c(c3)N(C(=O)OC3CCCCC3)CCO4)ccc2n1` [Compound B8], the IC50 in the assay with L929 cells was 1.5 nM; in the assay on HT29 cells it was 1 nM. On the same counts, the results for `O=C(Nc1cn2cc(-c3cnc4c(c3)N(C(=O)OC3CCCCC3)CCO4)ccc2n1)C1CC1` [Compound B9] are 0.2 nM and 0.5 nM. `Nc1cn2nc(-c3cnc4c(c3)N(C(=O)OC3CCCCC3)CCO4)ccc2n1` [Compound B11]: the IC50 in the assay with L929 cells worked out at 8.9 nM; in the assay with HT29 cells it was 500 nM.

Regarding `O=C(Nc1cn2nc(-c3cnc4c(c3)N(C(=O)OC3CCCCC3)CCO4)ccc2n1)C1CC1` [Compound B13], the IC50 in the assay with L929 cells stood at 0.7 nM; in the assay on HT29 cells it was 1.3 nM. For `CC(=O)Nc1nc2ccc(-c3cnc4c(c3)N(C(=O)OC3CCOCC3)CCO4)cc2s1` [Compound B15], the IC50 was found to be 8.8 nM in the assay on L929 cells and 20 nM in the assay with HT29 cells. On the same counts, the results for `O=C(Nc1nc2ccc(-c3cnc4c(c3)N(C(=O)OC3CCOCC3)CCO4)cc2s1)C1CC1` [Compound B16] are 1.5 nM and 4 nM.

With `O=C(Nc1cn2cc(-c3cnc4c(c3)N(C(=O)OC3CCOCC3)CCO4)ccc2n1)C1CC1` [Compound B19], the IC50 with L929 cells is 10 nM; with HT29 cells, 20 nM. On the same counts, the results for `O=C(Nc1cn2nc(-c3cnc4c(c3)N(C(=O)OC3CCOCC3)CCO4)ccc2n1)C1CC1` [Compound B21] are 31 nM and 50 nM. For the molecule `CC(=O)Nc1nc2ccc(-c3cnc4c(c3)N(C(=O)OC(C)C3CC3)CCO4)cc2s1` (centres unmarked) [Compound B24], the IC50 with L929 cells came out at 5 nM; in the assay on HT29 cells it was 18 nM. Turning to `CC(=O)Nc1nc2ccc(-c3cnc4c(c3)N(C(=O)OC3CCCOC3)CCO4)cc2s1` (centres unmarked) [Compound B25], the results for the IC50 in the assay with L929 cells and in the assay with HT29 cells were 10 nM and 17 nM, respectively. Take `O=C(Nc1nc2ccc(-c3cnc4c(c3)N(C(=O)OC3CCOCC3)CCO4)nc2s1)C1CC1` [Compound B35]: the 50% inhibitory concentration (IC50) in the assay with L929 cells worked out at 1 nM; with HT29 cells, 36 nM.

Consider `CC(=O)Nc1nc2ccc(-c3cnc4c(c3)N(C(=O)OC3CCCCC3)C[C@@H](C)O4)cc2s1` [Compound B37, Cyclohexyl-(R)-7-(2-acetamidobenzo[d]thiazol-6-yl)-3-methyl-2,3-dihydro-1H-pyrido[2,3-b][1,4]oxazine-1-carboxylate], for which the IC50 with L929 cells is 30 nM; in the assay with HT29 cells it was 32 nM. Consider `CC(=O)Nc1nc2ccc(-c3cnc4c(c3)N(C(=O)OC3CCCCC3)C[C@H](C)O4)cc2s1` [Compound B38], for which the IC50 with L929 cells came out at 15 nM; in the assay on HT29 cells, 3500 nM.

In the case of `CC(=O)Nc1cn2nc(-c3cnc4c(c3)N(C(=O)OC3CCOCC3)CC4)ccc2n1` [Compound B57], the concentration for half-maximal inhibition (IC50) in the assay on L929 cells was determined as 90 nM; in the assay with HT29 cells it was 600 nM.

Regarding `CNC(=O)Nc1nc2ccc(-c3cnc4c(c3)N(C(=O)OC3CCOCC3)CC4)cc2s1` [Compound B60, Tetrahydro-2H-pyran-4-yl6-(2-(3-methylureido)benzo[d]thiazol-6-yl)-2,3-dihydro-1H-pyrrolo[3,2-b]pyridine-1-carboxylate], the values for the half-maximal inhibitory concentration (IC50) in the assay on L929 cells and with HT29 cells were 2.8 nM and 1.3 nM, respectively. `O=C(Nc1nc2ccc(-c3cnc4c(c3)N(C(=O)CC3CCOCC3)CC4)nc2s1)C1CC1` [Compound B63]: the values for the 50% inhibitory concentration (IC50) in the assay on L929 cells and in the assay on HT29 cells were 8.5 nM and 25 nM, respectively.

Regarding `CC(C)OC(=O)N1CCc2ncc(-c3ccc4nc(NC(=O)C5CC5)sc4c3)cc21` [Compound B65], the IC50 in the assay on L929 cells worked out at 4.5 nM; in the assay on HT29 cells, 3.2 nM. On the same counts, the results for `O=C(Nc1nc2ccc(-c3cnc4c(c3)N(C(=O)OCC3CC3)CC4)cc2s1)C1CC1` [Compound B66] are 0.73 nM and 0.39 nM.

In the assay with HT29 cells, `O=C(Nc1nc2ccc(-c3cnc4c(c3)N(C(=O)OC3CCNCC3)CC4)cc2s1)C1CC1` [Compound B67, Piperidin-4-yl-6-(2-(cyclopropanecarboxamido)benzo[d]thiazol-6-yl)-2,3-dihydro-1H-pyrrolo[3,2-b]pyridine-1-carboxylate] returned an IC50 of 300 nM.

As to `CN1CCC(OC(=O)N2CCc3ncc(-c4ccc5nc(NC(=O)C6CC6)sc5c4)cc32)CC1` [Compound B68, 1-methylpiperidin-4-yl-6-(2-(cyclopropanecarboxamido)benzo[d]thiazol-6-yl)-2,3-dihydro-1H-pyrrolo[3,2-b]pyridine-1-carboxylate], the IC50 worked out at 28.3 nM with L929 cells and 30 nM in the assay with HT29 cells.

As for `O=C(Nc1nc2ccc(-c3cnc4c(c3)N(C(=O)OC3CCS(=O)(=O)CC3)CC4)cc2s1)C1CC1` [Compound B69, 1,1-dioxidotetrahydro-2H-thiopyran-4-yl6-(2-(cyclopropanecarboxamido)benzo[d]thiazol-6-yl)-2,3-dihydro-1H-pyrrolo[3,2-b]pyridine-1-carboxylate], the IC50 in the assay with L929 cells was 15 nM; in the assay with HT29 cells it was 4.8 nM. Consider `O=C(Nc1nc2ccc(-c3cnc4c(c3)N(C(=O)OC3CCC(F)(F)CC3)CC4)cc2s1)C1CC1` [Compound B70], for which the half-maximal inhibitory concentration (IC50) with L929 cells was 1.3 nM; in the assay on HT29 cells it was 1.2 nM. For `CNC(=O)Nc1nc2ccc(-c3cnc4c(c3)N(C(=O)OC3CCOCC3)CC4)nc2s1` [Compound B71], in the assay with HT29 cells, it took 33.4 nM to reach half-maximal inhibition (IC50). In other words, the double-digit nanomolar range. Same read-out and setting: next, `CNC(=O)Nc1cn2cc(-c3cnc4c(c3)N(C(=O)OC3CCOCC3)CC4)ccc2n1` [Compound B72]: 48.1 nM; `CNC(=O)Nc1nc2ccc(-c3cnc4c(c3)N(C(=O)OCC3CC3)CC4)cc2s1` [Compound B73]: 1.8 nM. In turn, `CNC(=O)Nc1nc2ccc(-c3cnc4c(c3)N(C(=O)OCC3CC3)CC4)nc2s1` [Compound B74] had an IC50 in the assay on HT29 cells of 23 nM. Molecule `CNC(=O)Nc1cn2cc(-c3cnc4c(c3)N(C(=O)OCC3CC3)CC4)ccc2n1` [Compound B75] showed an IC50 in the assay with HT29 cells of 19 nM. In the assay with HT29 cells, `O=C(Nc1nc2ccc(-c3cnc4c(c3)N(C(=O)OCC3CC3)CC4)nc2s1)C1CC1` [Compound B76] registered an IC50 of 2.4 nM. On the same count and under the same terms, next, `O=C(Nc1cn2cc(-c3cnc4c(c3)N(C(=O)OCC3CC3)CC4)ccc2n1)C1CC1` [Compound B77]: 1.7 nM; `O=C(Nc1nc2ccc(-c3cnc4c(c3)N(C(=O)OC3COC3)CC4)cc2s1)C1CC1` [Compound B78, Oxetan-3-yl-6-(2-(cyclopropanecarboxamido)benzo[d]thiazol-6-yl)-2,3-dihydro-1H-pyrrolo[3,2-b]pyridine-1-carboxylate]: 6.7 nM; `CNCC(C)OC(=O)N1CCc2ncc(-c3ccc4nc(NC(=O)C5CC5)sc4c3)cc21` (centres unmarked) [Compound B79]: 16 nM. The molecule `CC(=O)Nc1ccc2cc(-c3cnc4c(c3)N(C(=O)OC3CCCCC3)CCO4)ccc2n1` [Compound B80, Cyclohexyl7-(2-acetamidoquinolin-6-yl)-2,3-dihydro-1H-pyrido[2,3-b][1,4]oxazine-1-carboxylate] yielded an IC50 in the assay on HT29 cells of 1000 nM. Compared with the last molecule, the IC50 is about 62-fold higher.
